# Measurements from patent US9540358B2, “Tricyclic compounds as anticancer agents” (ICAHN SCHOOL OF MEDICINE AT MOUNT SINAI, priority 2011, dated 2017).
# Tests used:
# [1] = system: H1650 lung cancer cells; assay: Cell viability assay (MTT, IC50 determination); type: cell-based; conditions: Homo sapiens, NCI-H1650, 48 hours after drug treatment, MTT
# Description: (§1) 89(22): p. […] H1650 lung cancer cells were plated at 150,000 cells per well in a 12 well plate. Twenty-four hours after plating, cells were treated as described with increasing concentrations of drug and control. Forty-eight hours after drug treatment, cells were treated with 100 μL of 3-(4,5-Dimethylthiazol-2-yl)-2,5-diphenyltetrazolium bromide (MTT) and incubated for 2 hours at 37 C. The MTT solution was subsequently replaced with 300 μL of n-propyl alcohol and re-aliquoted to a 96 well plates. Spectrophotometric analysis of each solution was performed using a 96 well plate reader at 600 nm in triplicate.
# [2] = system: naïve CD4 T cells; assay: Treg induction from naïve CD4 T cells (Foxp3 expression); type: cell-based
# Description: Example 30 has been tested for its ability to induce Treg from naïve CD4 T cells. […] Fifty thousand CD4 naïve cells (CD62Lhi, CD25 low, CD4 positive) were incubated with 2 ng/mL TGFβ, 1 ug/mL anti-CD3, 100 ng/mL IL-2, 50000 APCs per well and the compounds 10 μM, 5 μM and 2.5 μM concentrations. The cells were incubated for 3 days and then stained for CD4 and Foxp3 expression. Results were expressed as fold increase over the % induced in control (DMSO) wells (typically 20-25% Foxp3+). AKTi, a small molecule AKT inhibitor, was used as a positive control; it induced about a 4-fold increase. […] The effects of Example 30 on iTreg induction are amplified as the TGFβ concentration decreases.
# [3] = system: A549luc cells; assay: Colony formation (clonogenic) assay, A549luc; type: cell-based; conditions: 7 days
# Description: (§2) Protocol for clonogenic assay follows Sangodkar et al. J Clin Invest 2012; 122:2637-51.
# (§3) Cell culture and staining: For both A549luc and H292 cells, 500 cells were seeded into each well of a 6-well plate and allowed to attach for 24 hours before drug treatment. The following day, cells were treated with either the appropriate dose of drug or an equivalent volume of DMSO (two replicates were treated for each condition). For each condition, depleted media was replaced with fresh media containing the equivalent drug dose four days after initial treatment. Cells were harvested either 7 (A549luc) or 8 (H292) days after initial treatment. Briefly, media was aspirated from each well and the cells were washed twice with ice-cold PBS, then plates were allowed to dry at room temperature for 4 hours. Cells were fixed for one hour in a fixing solution consisting of 10% methanol and 10% glacial acetic acid in distilled water, then stained overnight in 1% (w/v) crystal violet dissolved in methanol. The next day, staining solution was aspirated from the wells and plates were washed gently with distilled water to remove excess stain before colony counting. Colonies were imaged on a ChemiDoc XRS+ (Bio-Rad) and images were exported as 8-bit TIFF files. Colonies were counted using the Colony Counter plugin in ImageJ, with colony size defined as between 4 and 400 square pixels, and minimum circularity set at 0.6. Duplicate wells were averaged to obtain a single value for each condition. Results (number of colonies) for A549luc cells are shown in Table 2 and results (number of colonies) for H292 cells are shown in Table 3: […]
# [4] = system: H292 cells; assay: Colony formation (clonogenic) assay, H292; type: cell-based; conditions: 8 days
# Description: as §2, §3
# [5] = system: EGFR-L858R/CCSP mice; assay: In vivo lung cancer model; conditions: i.p. 100 mg/kg every other day, two week treatment period, MRI; DMSO control 20% increase
# Description: The in vivo lung cancer model is described in Politi et al., Genes Dev. Jun. 1, 2006 20: 1496-1510. EGFR-L858R/CCSP mice were fed doxycycline-impregnanted food pellets to induce tumor formation. After 8-12 weeks, mice were imaged in a Bruker 4.7T Biospec scanner to confirm lung nodule development. After tumor confirmation, the compound of Example 30 was prepared in DMSO (Sigma) and administered i.p. at 100 mg/kg every other day for two weeks. After treatment, the mice were re-imaged by MRI, and pre-treatment and post-treatment lung volumes were calculated by visible lung opacity present in each axial image using Osirix 4.1.1. DMSO control animals show a 20% increase in tumor volume over two week treatment period. Animals treated with the compound of Example 30 show a 60% decrease in tumor volume over two week treatment period.
# [6] = system: alloreactive T cells; assay: Suppression assay using induced Tregs; type: cell-based
# [7] = system: BALB/c hearts transplanted into fully allogeneic B6 recipients; assay: Heart allograft survival; type: in vivo, mice; conditions: 100 mg/kg i.p., n=4, p<0.05 vs control; untreated rejected by day 8
# Description: To test for a clinically relevant in vivo effect, BALB/c hearts were transplanted into fully allogeneic B6 recipients. While untreated animals rejected their grafts by day 8 n=4, the grafts in the mice treated with 100 mg/kg i.p. of Example 30 lasted 18 days n=4, p<0.05 vs control, a statistically and clinically significant effect.
# [8] = Cell viability assay (MTT, IC50 determination); type: cell-based; conditions: human, H1650 lung cancer cells
# Description: as §1
IC50 [1] [µM],SMILES,number of colonies ([3]; 5 μM),number of colonies ([3]; 7.5 μM),number of colonies ([3]; 10 μM),number of colonies ([4]; 5 μM),number of colonies ([4]; 7.5 μM),number of colonies ([4]; 10 μM),also measured
20,"O=S(=O)(NCCN1c2ccccc2Sc2ccc(Cl)cc21)c1ccc(Cl)cc1 [Example 27, 4-chloro-N-(2-(2-chloro-10H-phenothiazin-10-yl)ethyl)benzenesulfonamide]",,,,,,,"fold increase in iTreg over control (DMSO) wells ([2]; at 5 μM, 3 days, 2 ng/mL TGFβ): 2 fold"
~15,"O=S(=O)(NCC(O)CN1c2ccccc2CCc2ccccc21)c1ccc(OC(F)(F)F)cc1 (centres unmarked) [Example 60, 4-Trifluoromethoxy-N-(3-(10,11-dihydro-5H-dibenzo[b,f]azepin-5-yl)-2-hydroxypropyl)benzenesulfonamide]",126.5,118.5,56,107,105,42,
,"O=S(=O)(NCCCN1c2ccccc2CCc2ccc(Cl)cc21)c1cnc(Cl)c(Br)c1 [Example 63, 5-Bromo-6-chloro-N-(3-(3-chloro-10,11-dihydro-5H-dibenzo[b,f]azepin-5-yl)propyl)pyridine-3-sulfonamide]",,,,,,,"viability at 48 h, 20 µM ([8]; @ 20 μM): 65%"
,"O=S(=O)(NC1CCCC(N2c3ccccc3CCc3ccccc32)C1)c1ccc(OC(F)(F)F)cc1 (centres unmarked) [Example 73, N-(3-(10,11-dihydro-5H-dibenzo[b,f]azepin-5-yl)cyclohexyl)-4-(trifluoromethoxy)benzenesulfonamide]",2,0,0,40.5,16.5,7,
~15,"O=S(=O)(NC[C@@H](O)CN1c2ccccc2CCc2ccccc21)c1ccc(OC(F)(F)F)cc1 [Example 74, (S)—N-(3-(10,11-dihydro-5H-dibenzo[b,f]azepin-5-yl)-2-hydroxypropyl)-4-(trifluoromethoxy)benzenesulfonamide]",135.5,118.5,96,85.5,65.5,46.5,
~15,"O=S(=O)(NC[C@H](O)CN1c2ccccc2CCc2ccccc21)c1ccc(OC(F)(F)F)cc1 [Example 75, (R)—N-(3-(10,11-dihydro-5H-dibenzo[b,f]azepin-5-yl)-2-hydroxypropyl)-4-(trifluoromethoxy)benzenesulfonamide]",133.5,105,63.5,109.5,80,47,
,O=S(=O)(NCCCN1c2ccccc2CCc2ccccc21)c1cccnc1 [Example 89],,,,,,,"viability at 48 h, 40 µM ([8]; @ 40 μM): 50%"
,"O=C(CCCN1CCC(O)(c2ccc(Cl)cc2)CC1)c1ccc(F)cc1 [Haloperidol, reference compound]",,,,,,,"fold increase in iTreg (Foxp3+) over control (DMSO) wells ([2]; control compounds, concentration not given, 3 days, 2 ng/mL TGFβ): did not induce a statistically significant increase"

SMILES,IC50 [1] [µM],number of colonies ([3]; 5 μM),number of colonies ([3]; 7.5 μM),number of colonies ([3]; 10 μM),number of colonies ([4]; 5 μM),number of colonies ([4]; 7.5 μM),number of colonies ([4]; 10 μM),also measured
"O=S(=O)(NCCCN1c2ccccc2CCc2ccc(Cl)cc21)c1ccc(OC(F)(F)F)cc1 [Example 30, N-(3-(3-chloro-10,11-dihydro-5H-dibenzo[b,f]azepin-5-yl)propyl)-4-(trifluoromethoxy)benzenesulfonamide]",12.6,116,111.5,67.5,95,74.5,61,"decrease in tumor volume [5]: 60%; fold increase in iTreg over control (DMSO) wells ([2]; at 2.5 μM, 3 days, 2 ng/mL TGFβ): greater than 2 fold; upregulation of Foxp3 ([2]; naïve polyclonal T cells treated with TGFβ and TCR transgenic T cells stimulated in vivo during costimulatory blockade): facilitated upregulation of Foxp3; suppressive capacity of iTreg induced with or without compound (% inhibition of maximal proliferation) [6]: equivalent suppressive capacity; heart graft survival [7]: 18 days"
